Test system: mCRC patients
Assay: Phase III EPIC trial subgroup (US sites, 186 genotyped patients): IR/CB (arm A) vs IR alone (arm B), second line after failure of FOLFOX
Format: in vivo, human
Method: This study was to test functional germline polymorphisms involved in the EGFR—(EGF, EGFR), angiogenesis—(VEGF, IL-8, CXCR-2)—and drug-metabolism related genes (UGT1A1, MTHFR) for their potential role as molecular predictors for clinical outcome in patients treated with CB/IR vs. IR alone.
Material and Methods: DNA was extracted from all available formalin-fixed paraffin-embedded tumor samples from the phase III EPIC trial (US sites only). Genotyping was performed using PCR-RFLP assays and 5′-end [g-33P] ATP′ labeled PCR-protocols.
Results: 186 patients were treated either with IR/CB (arm A, 84 patients) or IR (arm B, 102 patients) only. […] It was found an EGFR-CA-repeat in intron I in arm A was associated with PFS (p=0.031, log-rank test) (Table 2). In arm A, a significant association with […] (RR) (p=0.0103, Fisher's exact test) for MTHFR 1298 was found (Table 3). […] Furthermore, MTHFR 677 and MTHFR 1298 was associated with OS (adjusted p=0.028 and 0.026, respectively, Cox-proportional hazards models), independent from K-ras mutation status, race and number of disease sites.

Compound: CCc1c2c(nc3ccc(OC(=O)N4CCC(N5CCCCC5)CC4)cc13)-c1cc3c(c(=O)n1C2)COC(=O)[C@]3(O)CC [IR, Irinotecan]
- Median PFS (95% CI): 2.7 months
- median overall survival (OS) (95% CI): 12.3 months
- patients showing CR or PR (arm A n=84, arm B n=102): 6%
- patients with SD or PD (arm A n=84, arm B n=102): 94%

— patent US20120100135A1, “GENETIC POLYMORPHISMS ASSOCIATED WITH CLINICAL OUTCOMES OF TOPOISOMERASE INHIBITOR THERAPY FOR CANCER” (University of Southern California, priority 2009, published 2012)
